Reference: US20040023962A1, “Use of medicaments” (priority 2000, published 2004)
Like-named read-outs stand apart in the source and are kept apart here.

How the values were obtained:
[1] = test system: cochlea nerve compound action potential (CAP); test: Otoprotection after acute noise insult: CAP threshold shifts; assay type: in vivo, guinea pig; details: 20 mg/kg about 2 hours before 15 minutes filtered (5-20 KHz) noise; 8, 16, 24 and 30 KHz
Protocol: Sedation was achieved using an intramuscular injection of 0.5 mL/kg medetomidine followed by an intraperitoneal injection of 6 mL/kg fentanyl approximately 10 minutes later (loss of the pedal reflex was used to determine sufficient sedation for surgery).
The cochlea nerve compound action potential (CAP) was generated in response to discrete acoustic stimuli. It was used to determine both control and treatment related changes in auditory thresholds by measuring changes in CAP latency (milliseconds) and amplitude (μVolts).
Tone ‘pip’ stimuli of 5 millisecond duration were computer generated at 8, 16, 24 and 30 KHz and fed to an attenuator (1 dB resolution). The tone pip was then fed to a Bruel and Kjaer 4192, (microphone) serving as an acoustic driver, which was placed inside an ear speculum coupled to the ear canal. CAP averaging was performed between ×50 to 100 times and the CAP threshold was determined by visual inspection of the recorded time signal. Accuracy was typically between 1-3 dB, using a CAP detection criterion of approximately 1 μV.
Animals were then exposed to 15 minutes filtered (5-20 KHz) free field noise (approximately […]) during which ESAC measurements were made at 5 minute intervals.

[2] = Assay of plasma and perilymph for lamotrigine (pharmacokinetic evaluation); assay type: in vivo; details: guinea pig, single oral dose 20 mg/kg; for concentration at 15 h / Tmax / Cmax: male, albino
Protocol: All solutions were prepared fresh on the day of dosing and stored at 2-8° C., protected from light, between dosing sessions. In order to establish the otoprotective properties of LTG, a pharmacokinetic evaluation study was designed to establish penetration of LTG into guinea pig perilymph and plasma. A total of 17 healthy adult male albino guinea pigs were used. […] Two untreated control animals were also sampled for comparison. […] After the terminal blood sample had been taken, the animal received an overdose of anaesthetic and was decapitated. The bulla was removed and thoroughly cleaned to remove all tissue and fluids. […] Levels of LTG in both plasma and perilymph were determined using a protein precipitation extraction procedure using high performance liquid chromatography (HPLC) with ultraviolet (UV) detection. The LTG retention time was 5.4 minutes and quantification was carried out using peak areas.

[3] = test system: supramaximal electroshock (MES) model; details: rat; cited from earlier work

levels in perilymph relative to plasma ([2]; timepoints 1-15 hours): approximately twice | concentration at 15 h ([2]; perilymph, read-out: mean perilymph LTG level after the 15 hour sampling period): 3200 ng/mL | Tmax ([2]; perilymph, read-out: perilymph approximate mean time of maximum concentration (Tmax)): ~2 h | Cmax ([2]; perilymph, read-out: perilymph mean maximum concentration (Cmax)): 6140 ng/mL | concentration at 15 h ([2]; plasma, read-out: mean plasma LTG level after the 15 hour sampling period): 1000 ng/mL | Cmax ([2]; plasma, read-out: mean plasma Cmax): 3590 ng/mL | Tmax ([2]; plasma, read-out: plasma Tmax): 1 h
Compound: Nc1nnc(-c2cccc(Cl)c2Cl)c(N)n1 [LTG, 3,5-Diamino-6-(2,3-dichlorophenyl)-1,2,4-triazine]
CAP threshold shifts after noise versus noise control [1]: mean thresholds were higher in the LTG treated animals and reached statistical significance at 8 kHz | effective oral dose (ED50) [3]: 6.8 mg/kg
